Test results reported in US20100267697A1, “ION CHANNEL MODULATORS” (Wyeth, priority 2006, published 2010).
pIC50: −log10 of the molar value.

Each molecule was assayed against T1, human Cav2.2 (composed of the subunits α1, β3 and α2δ) (Homo sapiens, UniProt Q00975) (assay: FLIPR assay (TSA201 cells stably transfected with human Cav2.2 and human Kir2.3, FLUO-4 Ca2+ signal, KCl depolarization)). Settings: 70 mM KCl depolarization, average value.
T1 construct: expressed in transfected cells
Type: cell-based
Protocol: TSA201 cells stably transfected with human Cav2.2 (composed of the subunits α1, β3 and α2δ) and human Kir2.3 to enhance the FLIPR Ca^2+ signal were used. These cells were plated on 384-well collagen-coated plates (BD Bioscience, Franklin Lakes, N.J.) at a density of 2×10^4 cells/well one day prior to the FLIPR assay. […] Culture media is removed and replaced with 25 μl of the FLUO-4 dye solution and incubated for one hour at room temperature. The cell plate is then placed on the FLIPR where the dye is aspirated off and replaced with 25 μl of HBSS (Invitrogen, Carlsbad, Calif.). The HBSS is then aspirated and replaced with […] of compound which is diluted in HBSS with 1% DMSO. Compounds are incubated on the cells for 15 minutes. The cells are then depolarized with 25 μl of 140 mM KCl solution (also containing 2 mM CaCl2 and 10 mM HEPES). The final concentration of KCl on the cells is 70 mM.

T1 sequence (Q00975 whole entry): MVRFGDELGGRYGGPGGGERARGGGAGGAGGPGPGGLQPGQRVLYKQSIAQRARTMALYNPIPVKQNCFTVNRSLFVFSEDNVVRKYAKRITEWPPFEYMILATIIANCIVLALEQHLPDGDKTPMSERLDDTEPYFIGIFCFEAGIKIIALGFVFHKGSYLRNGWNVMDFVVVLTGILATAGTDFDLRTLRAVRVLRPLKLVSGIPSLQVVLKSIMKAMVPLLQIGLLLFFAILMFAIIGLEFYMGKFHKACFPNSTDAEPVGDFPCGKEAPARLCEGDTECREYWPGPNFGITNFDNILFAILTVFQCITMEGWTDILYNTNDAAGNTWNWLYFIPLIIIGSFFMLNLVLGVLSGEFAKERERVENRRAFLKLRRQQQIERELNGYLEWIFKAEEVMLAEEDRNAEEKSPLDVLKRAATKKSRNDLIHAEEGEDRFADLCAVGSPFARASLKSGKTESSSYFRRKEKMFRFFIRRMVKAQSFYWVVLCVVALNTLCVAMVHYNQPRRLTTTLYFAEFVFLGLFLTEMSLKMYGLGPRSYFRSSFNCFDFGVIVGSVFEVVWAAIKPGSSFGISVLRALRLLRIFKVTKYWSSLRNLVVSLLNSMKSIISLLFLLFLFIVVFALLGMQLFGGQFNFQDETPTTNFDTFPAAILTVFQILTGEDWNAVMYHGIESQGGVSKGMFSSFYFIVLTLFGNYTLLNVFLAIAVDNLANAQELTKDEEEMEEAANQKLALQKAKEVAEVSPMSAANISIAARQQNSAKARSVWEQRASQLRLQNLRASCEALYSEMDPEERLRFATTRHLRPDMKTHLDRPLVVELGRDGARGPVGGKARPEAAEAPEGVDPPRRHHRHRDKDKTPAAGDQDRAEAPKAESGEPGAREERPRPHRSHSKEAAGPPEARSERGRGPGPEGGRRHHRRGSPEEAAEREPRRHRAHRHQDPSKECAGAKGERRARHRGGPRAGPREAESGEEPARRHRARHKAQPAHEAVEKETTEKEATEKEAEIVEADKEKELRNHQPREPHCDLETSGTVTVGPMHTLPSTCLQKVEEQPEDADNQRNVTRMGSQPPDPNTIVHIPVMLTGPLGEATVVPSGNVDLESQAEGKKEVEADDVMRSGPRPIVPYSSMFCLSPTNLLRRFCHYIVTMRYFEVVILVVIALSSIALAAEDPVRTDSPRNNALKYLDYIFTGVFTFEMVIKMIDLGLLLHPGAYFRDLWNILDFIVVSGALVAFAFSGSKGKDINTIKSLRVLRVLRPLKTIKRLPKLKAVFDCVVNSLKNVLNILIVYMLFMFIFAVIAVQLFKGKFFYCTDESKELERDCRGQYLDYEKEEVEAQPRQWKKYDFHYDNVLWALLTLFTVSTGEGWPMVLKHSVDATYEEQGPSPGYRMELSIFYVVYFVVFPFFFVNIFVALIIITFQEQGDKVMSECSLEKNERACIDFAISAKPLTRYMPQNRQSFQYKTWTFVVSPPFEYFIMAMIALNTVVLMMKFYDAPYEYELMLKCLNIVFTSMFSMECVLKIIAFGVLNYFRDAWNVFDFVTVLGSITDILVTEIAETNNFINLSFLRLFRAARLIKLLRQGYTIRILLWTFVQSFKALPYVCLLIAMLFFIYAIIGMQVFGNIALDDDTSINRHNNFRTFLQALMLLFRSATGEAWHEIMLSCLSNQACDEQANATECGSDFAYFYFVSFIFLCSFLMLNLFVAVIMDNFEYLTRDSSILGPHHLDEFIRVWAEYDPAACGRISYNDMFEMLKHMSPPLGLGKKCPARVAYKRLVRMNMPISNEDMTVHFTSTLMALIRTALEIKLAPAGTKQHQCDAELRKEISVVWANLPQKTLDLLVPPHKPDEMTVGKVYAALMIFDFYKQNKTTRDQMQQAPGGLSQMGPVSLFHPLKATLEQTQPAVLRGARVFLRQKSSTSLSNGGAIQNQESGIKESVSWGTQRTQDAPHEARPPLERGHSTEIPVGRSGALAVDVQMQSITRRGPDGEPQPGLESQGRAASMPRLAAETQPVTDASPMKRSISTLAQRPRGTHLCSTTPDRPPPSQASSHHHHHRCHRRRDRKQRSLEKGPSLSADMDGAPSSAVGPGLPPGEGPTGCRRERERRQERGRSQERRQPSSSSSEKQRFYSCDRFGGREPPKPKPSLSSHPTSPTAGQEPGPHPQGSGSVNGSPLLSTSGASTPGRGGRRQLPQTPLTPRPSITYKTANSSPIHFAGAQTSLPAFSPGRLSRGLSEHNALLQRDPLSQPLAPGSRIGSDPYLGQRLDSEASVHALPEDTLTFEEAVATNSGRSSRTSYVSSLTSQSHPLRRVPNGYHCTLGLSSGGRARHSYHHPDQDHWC
T1 sequence (P54284 whole entry partner): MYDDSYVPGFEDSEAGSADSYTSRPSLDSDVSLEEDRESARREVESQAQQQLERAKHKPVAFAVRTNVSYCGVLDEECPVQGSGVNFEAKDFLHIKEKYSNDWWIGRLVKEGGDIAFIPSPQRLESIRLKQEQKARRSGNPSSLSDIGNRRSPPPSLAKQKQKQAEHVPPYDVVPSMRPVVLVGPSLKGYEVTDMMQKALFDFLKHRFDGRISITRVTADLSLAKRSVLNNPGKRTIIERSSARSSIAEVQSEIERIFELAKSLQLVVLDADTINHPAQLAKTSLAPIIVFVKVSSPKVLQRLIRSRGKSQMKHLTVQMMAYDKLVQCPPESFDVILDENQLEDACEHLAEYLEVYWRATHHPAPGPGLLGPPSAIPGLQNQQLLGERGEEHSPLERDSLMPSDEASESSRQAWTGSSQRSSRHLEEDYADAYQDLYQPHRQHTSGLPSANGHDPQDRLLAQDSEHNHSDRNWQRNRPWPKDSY
T1 sequence (P54289 25-946 partner limits assumed): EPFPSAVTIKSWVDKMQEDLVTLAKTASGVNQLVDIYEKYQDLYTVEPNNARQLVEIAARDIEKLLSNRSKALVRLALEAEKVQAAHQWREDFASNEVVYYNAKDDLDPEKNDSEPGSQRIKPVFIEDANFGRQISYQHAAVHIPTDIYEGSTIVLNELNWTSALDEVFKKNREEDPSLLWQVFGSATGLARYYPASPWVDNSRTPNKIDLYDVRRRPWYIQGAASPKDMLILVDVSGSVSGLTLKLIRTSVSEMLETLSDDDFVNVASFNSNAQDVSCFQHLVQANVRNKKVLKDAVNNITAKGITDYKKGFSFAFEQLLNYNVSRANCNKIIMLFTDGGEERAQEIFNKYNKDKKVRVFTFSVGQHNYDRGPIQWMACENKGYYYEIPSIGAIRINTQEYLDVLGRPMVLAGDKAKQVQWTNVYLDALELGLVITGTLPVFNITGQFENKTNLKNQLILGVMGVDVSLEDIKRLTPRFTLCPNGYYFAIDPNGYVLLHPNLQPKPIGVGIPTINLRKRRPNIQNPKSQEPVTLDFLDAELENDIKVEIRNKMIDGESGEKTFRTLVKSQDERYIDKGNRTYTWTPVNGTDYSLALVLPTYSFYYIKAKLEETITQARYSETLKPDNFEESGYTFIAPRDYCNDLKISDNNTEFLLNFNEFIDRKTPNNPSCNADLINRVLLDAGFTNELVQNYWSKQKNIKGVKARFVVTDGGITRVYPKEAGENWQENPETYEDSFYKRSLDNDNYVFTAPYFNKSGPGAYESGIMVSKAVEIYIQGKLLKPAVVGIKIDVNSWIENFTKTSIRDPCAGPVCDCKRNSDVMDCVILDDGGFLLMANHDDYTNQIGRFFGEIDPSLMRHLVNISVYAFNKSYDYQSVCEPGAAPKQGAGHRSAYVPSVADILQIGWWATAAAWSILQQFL
T1 sequence (P54289 947-1103 partner limits assumed): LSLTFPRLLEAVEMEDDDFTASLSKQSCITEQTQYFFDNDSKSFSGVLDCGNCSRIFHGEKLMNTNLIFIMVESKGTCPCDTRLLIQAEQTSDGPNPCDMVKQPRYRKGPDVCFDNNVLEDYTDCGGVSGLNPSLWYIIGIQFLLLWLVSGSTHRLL

Compound | pIC50
CN(C)CCCNc1nc(CN(C(=O)C(C)(C)C)c2ccc(F)cc2)cs1 [Compound 154] | 5.05
CN(C)CCCCNc1nc(CN(C(=O)C(C)(C)C)c2ccc(F)cc2)cs1 [Compound 155, N-[(2-{[4-(dimethylamino)butyl]amino}-1,3-thiazol-4-yl)methyl]-N-(4-fluorophenyl)-2,2-dimethylpropanamide] | 5.07
CC(C)(C)C(=O)N(Cc1csc(NC2CCCC2)n1)c1ccc(F)cc1 [Compound 156, N-{[2-(cyclopentylamino)-1,3-thiazol-4-yl]methyl}-N-(4-fluorophenyl)-2,2-dimethylpropanamide] | 5.52
CC(C)(C)C(=O)N(Cc1csc(Nc2ccc(F)cc2)n1)c1ccc(F)cc1 [Compound 158, N-(4-fluroophenyl)-N-({2-[(4-fluorophenyl)amino]-1,3-thiazol-4-yl}methyl)-2,2-dimethylpropanamide] | 5.03
CC(C)(C)C(=O)N(Cc1csc(Nc2ccccc2F)n1)c1ccc(F)cc1 [Compound 159, N-(4-fluorophenyl)-N-({2-[(2-fluorophenyl)amino]-1,3-thiazol-4-yl}methyl)-2,2-dimethylpropanamide] | 4.99
CC(C)(C)C(=O)N(Cc1csc(N2CCN(CCc3ccccc3)CC2)n1)c1ccc(F)cc1 [Compound 165, N-(4-fluroophenyl)-2,2-dimethyl-N-({2-[4-(2-phenylethyl)piperazin-1-yl]--1,3-thiazol-4-yl}methyl)propanamide] | 5.44
CN(C)CCCN1CCN(c2nc(CN(C(=O)C(C)(C)C)c3ccc(F)cc3)cs2)CC1 [Compound 166, N-[(2-{4-[3-(dimethylamino)propyl]piperazin-1-yl}-1,3-thiazol-4-yl)methyl]-N-(4-fluorophenyl)-2,2-dimethylpropanamide] | 4.70
CC(C)(C)C(=O)N(Cc1csc(N2CCN(C(c3ccccc3)c3ccccc3)CC2)n1)c1ccc(F)cc1 [Compound 167, N-({2-[4-(diphenylmethyl)piperazin-1-yl]-1,3-thiazol-4-yl}methyl)-N-(4-fluroophenyl)-2,2-dimethylpropanamide] | 4.87
CCN(c1nc(CN(C(=O)C(C)(C)C)c2ccccc2F)cs1)C1CC1 [Compound 169, N-({2-[cyclopropyl(ethyl)amino]-1,3-thiazol-4-yl}methyl)-N-(2-fluorophenyl)-2,2-dimethylpropanamide] | 5.24
CCN(c1nc(CN(C(=O)C(C)(C)C)c2cccc(C)c2)cs1)C1CC1 [Compound 172, N-({2-[cyclopropyl(ethyl)amino]-1,3-thiazol-4-yl}methyl)-2,2-dimethyl-N-(3-methylphenyl)propanamide] | 5.37
CCN(c1nc(CN(C(=O)C(C)(C)C)c2ccccc2OC)cs1)C1CC1 [Compound 174, N-({2-[cyclopropyl(ethyl)amino]-1,3-thiazol-4-yl}methyl)-N-(2-methoxyphenyl)-2,2-dimethylpropanamide] | 5.42
CCN(c1nc(CN(C(=O)C(C)(C)C)c2ccc(OC)cc2)cs1)C1CC1 [Compound 175, N-({2-[cyclopropyl(ethyl)amino]-1,3-thiazol-4-yl}methyl)-N-(4-methoxyphenyl)-2,2-dimethylpropanamide] | 5.44
CC(C)(C)C(=O)N(Cc1csc(N2CCN(Cc3ccccc3)CC2)n1)c1ccc(F)cc1 [Compound 177, N-{[2-(4-benzylpiperazin-1-yl)-1,3-thiazol-4-yl]methyl}-N-(4-fluorophenyl)-2,2-dimethylpropanamide] | 5.03

Further molecules by rising pIC50, results first:

pIC50 | Compound
4.71 | CN(C)CCN1CCN(c2nc(CN(C(=O)C(C)(C)C)c3ccc(F)cc3)cs2)CC1 [Compound 178, N-[(2-{4-[2-(dimethylamino)ethyl]piperazin-1-yl}-1,3-thiazol-4-yl)methyl]-N-(4-fluorophenyl)-2,2-dimethylpropanamide]
4.89 | CN(C)CCNc1nc(CN(C(=O)C(C)(C)C)c2ccc(F)cc2)cs1 [Compound 153, N-[(2-{[2-(dimethylamino)ethyl]amino}-1,3-thiazol-4-yl)methyl]-N-(4-fluorophenyl)-2,2-dimethylpropanamide]
4.96 | CC(C)(C)C(=O)N(Cc1csc(N2C[C@@H]3C[C@H]2CN3)n1)c1ccc(F)cc1 [Compound 162, N-({2-[(1S,4S)-2,5-diazabicycl[2.2.1]hept-2-yl]-1,3-thiazol-4-yl}methyl)-N-(4-fluorophenyl)-2,2-dimethylpropanamide]
5.06 | CC(C)(C)C(=O)N(Cc1csc(NC2CCCCC2)n1)c1ccc(F)cc1 [Compound 157, N-{[2-(cyclohexylamino)-1,3-thiazol-4-yl]methyl}-N-(4-fluorophenyl)-2,2-dimethylpropanamide]
5.11 | CCCNc1nc(CN(C(=O)C(C)(C)C)c2ccc(F)cc2)cs1 [Compound 163, N-(4-fluorophenyl)-2,2-dimethyl-N-{[2-(propylamino)-1,3-thiazol-4-yl]methyl}propanamide]
5.15 | CCN(c1nc(CN(C(=O)C(C)(C)C)c2cccc3c2CCCC3)cs1)C1CC1 [Compound 176, N-({2-[cyclopropyl(ethyl)amino]-1,3-thiazol-4-yl}methyl)-2,2-dimethyl-N-(5,6,7,8-tetrahydronaphthalen-1-yl)propanamide]
5.19 | CCN(c1nc(CN(C(=O)C(C)(C)C)c2ccccc2C)cs1)C1CC1 [Compound 171, N-({2-[cyclopropyl(ethyl)amino]-1,3-thiazol-4-yl}methyl)-2,2-dimethyl-N-(2-methylphenyl)propanamide]
5.21 | CNc1nc(CN(C(=O)C(C)(C)C)c2ccc(F)cc2)cs1 [Compound 160, N-(4-fluorophenyl)-2,2-dimethyl-N-{[2-(methylamino)-1,3-thiazol-4-yl]methyl}propanamide]
5.29 | CCN(c1nc(CN(C(=O)C(C)(C)C)c2ccccc2)cs1)C1CC1 [Compound 168, N-({2-[cyclopropyl(ethyl)amino]-1,3-thiazol-4-yl}methyl)-2,2-dimethyl-N-phenylpropanamide]
5.32 | CN(C)c1nc(CN(C(=O)C(C)(C)C)c2ccc(F)cc2)cs1 [Compound 164, N-{[2-(dimethylamino)-1,3-thiazol-4-yl]methyl}-N-(4-fluorophenyl)-2,2-dimethylpropanamide]
5.41 | CCN(c1nc(CN(C(=O)C(C)(C)C)c2cccc(F)c2)cs1)C1CC1 [Compound 170, N-({2-[cyclopropyl(ethyl)amino]-1,3-thiazol-4-yl}methyl)-N-(3-fluorophenyl)-2,2-dimethylpropanamide]
5.41 | CC(C)(C)C(=O)N(Cc1csc(N(c2ccccc2)c2ccccc2)n1)c1ccc(F)cc1 [Compound 179, N-{[2-(diphenylamino)-1,3-thiazol-4-yl]methyl}-N-(4-fluorophenyl)-2,2-dimethylpropanamide]
5.42 | CCN(c1nc(CN(C(=O)C(C)(C)C)c2ccc(C)cc2)cs1)C1CC1 [Compound 173, N-({2-[cyclopropyl(ethyl)amino]-1,3-thiazol-4-yl}methyl)-2,2-dimethyl-N-(4-methylphenyl)propanamide]
5.57 | CC(C)CNc1nc(CN(C(=O)C(C)(C)C)c2ccc(F)cc2)cs1 [Compound 161, N-(4-fluorophenyl)-N-{[2-(isobutylamino)-1,3-thiazol-4-yl]methyl}-2,2-dimethylpropanamide]
